{"source": "paper PMC7808732", "about": "(Biochemical and Biophysical Research Communications, 2021)", "target": "RNA-binding domain (RBD) of the SARS-CoV-2 nucleocapsid (N) protein, RBD (44–180) (Severe acute respiratory syndrome coronavirus 2, UniProt P0DTC9)", "experiment": "biochemical", "data": [{"smiles": "Nc1ncnc2c1ncn2[C@@H]1O[C@H](COP(=O)(O)OP(=O)(O)OP(=O)(O)O)[C@@H](O)[C@H]1O", "note": "[ATP]", "values": [{"measurement": "Kd", "result": "3.3 ± 0.4", "unit": "mM"}]}]}
